# Measurements published in patent US11866712B2, “System based on the reassembly of GFP for studying the trans-translational activity and identifying new antibiotics” (UNIVERSITE DE RENNES 1, priority 2018, dated 2024).
# “Also recorded” adds a separate entry of the source.
# How the values were obtained:
# trans-translation = assay: in vitro trans-translation assay (PURExpress kit, tmRNAGFP11, SmpB, sfGFP1-10 nonstop; GFP fluorescence); format: biochemical, Escherichia coli; conditions: concentration of 10 μM; FIG. 3(B)
# Experimental: (§1) In order to evaluate the tmRNA labeling activity in vitro, the present inventors used a reconstituted cell-free protein synthesis system (PURE for Protein Synthesis Using Recombinant Elements) (Shimizu et al., Nature Biotechnol., 2001, 19(8): 751-755). The experiments were carried out using the PURExpress® commercial kit (sold by New England Biolabs) containing all the purified components of Escherichia coli that are required to carry out both the transcription and the translation. In order to convert this kit into an in vitro fluorescent trans-translation system, the inventors added the components required for the trans-translation: tmRNAGFP11, the SmpB protein, and a non-stop DNA sequence encoding the first 10 domains of sfGFP (see Materials and Methods section).
# Translation and trans-translation assays. The in vitro translation reactions were carried out according to the recommendations of New England Biolabs. The in vitro trans-translation assays were carried out in various steps using the PURExpress® protein synthesis kit (New England Biolabs). […]
# Analysis by fluorescence. After overnight incubation at 37° C., the reaction volume was adjusted to 125 μL and transferred into a cuvette for analysis by fluorescence using an LS 55 fluorescence spectrometer (Perkin Elmer). The fluorescence intensity at 510 nm of the trans-translated sfalaGFP was determined using an excitation at 485 nm. […]
# [1] = system: transcription and translation; assay: in vitro translation control: production of fluorescent sfalaGFP from PCR product in PURExpress kit; format: biochemical, Escherichia coli; conditions: KKL-35 10 μM added to the sfalaGFP PCR product; FIG. 3(A)
# Experimental: as §1
# Translation and trans-translation assays. The in vitro translation reactions were carried out according to the recommendations of New England Biolabs. […]
# Analysis by fluorescence. After overnight incubation at 37° C., the reaction volume was adjusted to 125 μL and transferred into a cuvette for analysis by fluorescence using an LS 55 fluorescence spectrometer (Perkin Elmer). The fluorescence intensity at 510 nm of the trans-translated sfalaGFP was determined using an excitation at 485 nm.
# The inventors first of all confirmed that there was no fluorescence generated by the components of the PURExpress® kit (see FIG. 3). […]
# translation = conditions: known from Ramadoss et al., PNAS USA, 2013; cited from earlier work
compound,measurement,setting,value
O=C(Nc1nnc(-c2ccc(F)cc2)o1)c1ccc(Cl)cc1 [KKL-35],activity against the trans-translation,trans-translation,slight activity
same,inhibition of transcription and of translation (anti-transcription and anti-translation activity),[1],No inhibition; also recorded: absence
same,anti-translation activity,translation,strong
